Literature values, collected in patent US20060099233A1, “Granular formulation of neem seed extract and its process thereof” (E.I.D. Parry (India) Limited, priority 2004, published 2006).
Read-outs that look alike come from different tables or passages of the source.

Settings: 25 days at 29±1° C.

## C/C=C(\C)C(=O)O[C@H]1C[C@@H](OC(C)=O)[C@@]2(C(=O)OC)CO[C@H]3[C@@H](O)[C@@](C)([C@]45O[C@@]4(C)[C@@H]4C[C@H]5O[C@@H]5OC=C[C@@]54O)[C@H]4[C@]1(CO[C@]4(O)C(=O)OC)[C@@H]32 [azadirachtin A]
In ethanol and water
  degradation of azadirachtin A: about 85%
In methanol and acetone
  degradation of azadirachtin A: 50%
In methylene chloride, carbon tetrachloride and chloroform
  degradation of azadirachtin A: 75-80%
